Data reported in the supplement of paper PMC10307832.

How the values were obtained:
Assay in all cases: relative viability (nuclei count vs DMSO), 5 days (fraction); higher = more cells survive
[1] = compound: CN(C)C[C@@H]1CCn2cc(c3ccccc32)C2=C(C(=O)NC2=O)c2cn(c3ccccc23)CCO1 [Ruboxistaurin] + O=C(c1cc(Cc2n[nH]c(=O)c3ccccc23)ccc1F)N1CCN(C(=O)C2CC2)CC1 [Olaparib] (partner 8 µM)
How it was run: (§1)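 Relative viability is defined as nuclei in treated wells over nuclei in vehicle wells. Duplicate plates were run and medians reported. Lung cancer cell lines in 1536-well plates were dosed by pin tool one day after seeding, with one drug or with a fixed anchor-drug dose plus five library-drug doses (not always all listed) in √10 steps, and nuclei were counted after 5 days.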

[2] = compound: CN(C)C[C@@H]1CCn2cc(c3ccccc32)C2=C(C(=O)NC2=O)c2cn(c3ccccc23)CCO1 [Ruboxistaurin] + C[C@]1(O)C[C@@H](c2nc(-c3ccc4ccc(-c5ccccc5)nc4c3)c3c(N)nccn32)C1 [Linsitinib] (partner 1 µM)
How it was run: as §1

[3] = compound: CN(C)C[C@@H]1CCn2cc(c3ccccc32)C2=C(C(=O)NC2=O)c2cn(c3ccccc23)CCO1 [Ruboxistaurin] + CCNC(=O)c1noc(-c2cc(C(C)C)c(O)cc2O)c1-c1ccc(CN2CCOCC2)cc1 [Luminespib] (partner 0.01 µM)
How it was run: as §1

[4] = compound: CN(C)C[C@@H]1CCn2cc(c3ccccc32)C2=C(C(=O)NC2=O)c2cn(c3ccccc23)CCO1 [Ruboxistaurin] + CC(=O)c1c(C)c2cnc(Nc3ccc(N4CCNCC4)cn3)nc2n(C2CCCC2)c1=O [Palbociclib] (partner 0.5 µM)
How it was run: as §1

[5] = compound: CN(C)C[C@@H]1CCn2cc(c3ccccc32)C2=C(C(=O)NC2=O)c2cn(c3ccccc23)CCO1 [Ruboxistaurin] + NC(=O)Nc1cc(-c2cccc(F)c2)sc1C(=O)N[C@H]1CCCNC1 [AZD7762] (partner 0.2 µM)
How it was run: as §1

| Cell Line | relative viability ([1]; first compound 0.08 µM) | relative viability ([1]; first compound 0.8 µM) | relative viability ([1]; first compound 2.53 µM) | relative viability ([1]; first compound 8 µM) | relative viability ([2]; first compound 0.08 µM) | relative viability ([2]; first compound 0.8 µM) | relative viability ([2]; first compound 2.53 µM) | relative viability ([2]; first compound 8 µM) | relative viability ([3]; first compound 0.08 µM) | relative viability ([3]; first compound 0.8 µM) | relative viability ([3]; first compound 2.53 µM) | relative viability ([3]; first compound 8 µM) | relative viability ([4]; first compound 0.08 µM) | relative viability ([4]; first compound 0.8 µM) | relative viability ([4]; first compound 2.53 µM) | relative viability ([4]; first compound 8 µM) | relative viability ([5]; first compound 0.08 µM) | relative viability ([5]; first compound 0.8 µM) | relative viability ([5]; first compound 2.53 µM) | relative viability ([5]; first compound 8 µM) |
| --- | --- | --- | --- | --- | --- | --- | --- | --- | --- | --- | --- | --- | --- | --- | --- | --- | --- | --- | --- | --- |
| NCI-H1975 | 0.882 | 0.784 | 0.788 | 0.713 | 1.07 | 0.916 | 0.938 | 0.769 | 0.266 | 0.0934 | 0.223 | 0.209 | 0.648 | 0.512 | 0.637 | 0.605 | 0.784 | 0.639 | 0.686 | 0.601 |
| NCI-H1993 | 1.01 | 0.959 | 1.19 | 0.538 | 0.63 | 0.695 | 0.62 | 0.703 | 1.06 | 0.599 | 0.926 | 0.887 | 0.716 | 0.666 | 0.712 | 0.556 | 0.958 | 0.57 | 0.93 | 0.296 |
| NCI-H2085 | 0.808 | 0.703 | 0.769 | 0.909 | 1.01 | 0.806 | 0.861 | 0.809 | 0.53 | 0.4 | 0.49 | 0.42 | 0.472 | 0.479 | 0.452 | 0.56 | 1.05 | 0.957 | 1.14 | 0.981 |
| NCI-H2087 | 0.601 | 0.62 | 0.692 | 0.57 | 1.13 | 0.874 | 0.98 | 0.884 | 0.175 | 0.215 | 0.162 | 0.156 | 0.28 | 0.253 | 0.285 | 0.291 | 1.46 | 1.17 | 1.38 | 1.44 |
| NCI-H2126 | 0.888 | 0.887 | 0.915 | 0.936 | 0.744 | 0.641 | 0.749 | 0.665 | 0.961 | 0.893 | 0.983 | 0.893 | 0.341 | 0.384 | 0.367 | 0.395 | 1.03 | 0.91 | 0.981 | 0.962 |
| NCI-H2347 | 0.636 | 0.614 | 0.581 | 0.451 | 0.943 | 0.902 | 0.92 | 0.984 | 0.568 | 0.373 | 0.289 | 0.297 | 0.441 | 0.425 | 0.358 | 0.42 | 0.989 | 0.73 | 0.797 | 0.606 |
| NCI-H2405 | 0.918 | 0.774 | 0.878 | 0.874 | 1.01 | 0.866 | 1.01 | 0.902 | 0.818 | 0.606 | 0.804 | 0.699 | 0.545 | 0.538 | 0.522 | 0.486 | 0.817 | 0.701 | 0.8 | 0.715 |
| NCI-H3122 | 0.743 | 0.581 | 0.559 | 0.572 | 1.03 | 0.978 | 1.03 | 1.01 | 0.0884 | 0.1 | 0.11 | 0.0946 | 0.176 | 0.149 | 0.196 | 0.336 | 0.98 | 0.909 | 1.05 | 1.1 |
| PC-3 [JPC-3] | 1.24 | 1.09 | 1.08 | 1.17 | 0.974 | 0.91 | 0.915 | 1 | 0.703 | 0.649 | 0.75 | 0.757 | 0.561 | 0.487 | 0.518 | 0.556 | 0.869 | 0.754 | 0.906 | 0.675 |
| PC-14 | 0.246 | 0.302 | 0.364 | 0.256 | 1.02 | 0.914 | 0.936 | 0.914 | 0.159 | 0.144 | 0.184 | 0.154 | 0.603 | 0.452 | 0.51 | 0.528 | 0.391 | 0.33 | 0.346 | 0.439 |
| RERF-LC-KJ | 0.938 | 0.804 | 0.942 | 0.709 | 0.877 | 0.857 | 0.932 | 0.956 | 1.23 | 1.08 | 1.36 | 0.965 | 1.17 | 0.934 | 1.12 | 0.995 | 1.05 | 1.04 | 0.982 | 1.19 |
